Assay results taken from patent US6706747B2, “Conformationally rigid bicyclic and adamantane derivatives useful as α2-adrenergic blocking agents” (Allergan, Inc., priority 1994, dated 2004).

Experiments:
Rat Kidney Cortex (α2AB) = molecular target: T1, Rat Kidney Cortex (α2AB) (Rattus norvegicus, UniProt P19328); assay: Radioligand binding, [3H]rauwolscine, rat kidney cortex (RKC) membranes; conditions: values marked †: rat kidney cortex, 0° C., 120 minutes, read-out: Ki (nM) α2B (RKC)†
T1 construct: Membrane suspensions were prepared from human cerebral cortex (HCC) obtained from the UCI Organ and Tissue Bank and rat kidney cortex (RKC); from tissue; host or cells: rat kidney cortex
T1 sequence (P19328 1-453): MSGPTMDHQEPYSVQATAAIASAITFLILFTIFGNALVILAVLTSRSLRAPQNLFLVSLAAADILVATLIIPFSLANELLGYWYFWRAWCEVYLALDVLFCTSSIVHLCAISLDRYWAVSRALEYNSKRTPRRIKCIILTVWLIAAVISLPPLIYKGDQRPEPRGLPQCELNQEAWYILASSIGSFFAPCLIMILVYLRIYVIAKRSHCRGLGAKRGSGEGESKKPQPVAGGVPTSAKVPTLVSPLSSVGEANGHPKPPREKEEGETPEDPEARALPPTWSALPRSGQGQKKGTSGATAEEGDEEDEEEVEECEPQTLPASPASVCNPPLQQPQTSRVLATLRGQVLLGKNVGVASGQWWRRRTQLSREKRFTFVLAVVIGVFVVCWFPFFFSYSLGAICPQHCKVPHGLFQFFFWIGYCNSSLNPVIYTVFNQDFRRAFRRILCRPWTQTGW
Procedure: (§1) Tissue preparation: Membrane suspensions were prepared from human cerebral cortex (HCC) obtained from the UCI Organ and Tissue Bank and rat kidney cortex (RKC). Briefly, tissues (1 g) were homogenized in 25 ml of iced-cold 5 mM tris, pH 7.4 with a Polytron homogenizer for 30 secs at setting# 7, and centrifuged for. 10-12 minutes at 300×g at 4° C. The supernatant was filtered: through 2 layers of gauze and diluted 1:2 with 50 mM Tris-HCI buffer, pH 7.4, then centrifuged at 49,000×g for 20 minutes. The pellet fraction was washed 3 times (resuspended in Tris-HCl buffer and centrifuged for 20 minutes at 49,000×g). The pellet was then stored at −80° C. until the binding assay.
(§2) Binding studies: The radioligands [^3H]rauwolscine (specific activity 80 Ci/mmol) and [^3H]prazosin (specific activity 76 Ci/mmol) were obtained from New England Nuclear, Boston, Mass. Frozen membrane pellet was resuspended in 25 mM glycine/glycine, pH 7.4 and incubated with radioligand under the following conditions: CHO—C10, CHO—RNG, HT-29-[^3H]rauwolscine, 22° C., 30 minutes; RKC-[^3H]rauwolscine, 0° C., 120 minutes; and, HCC-[^3H]prazosin, 22° C., 30 minutes in a final volume of 500 μl. At the end of the incubation period, the samples were filtered through glass fiber filters (Whatman GF/B) in a 96 well cell harvester and rapidly washed four times with 4 ml of ice-cold 50 mM, Tris-HCl buffer. The filters were then oven dried and transferred to scintillation vials containing 5 ml of Beckman's Ready Protein® scintillation cocktail for counting. Specific binding defined by 10 μM phentolamine for competition studies were as follows: 0.3 nM [^3H]rauwolscine—CHO—C10 99%; 0.4 nM[^3H]rauwolscine —CHO—RNG 99%; 0.7;nM [^3H]rauwolscine—HT-29 90%; 1 nm [^3]rauwolscine—RKC 92%, and 0.3 nM [^3H]prazosin—HCC 87%. Protein concentrations were determined with a protein assay kit from Bio Rad. Binding isotherms, equilibrium dissociation and affinity constants were analyzed and determined by the non-linear least squares curve fitting programs AccuFit Competition/Saturation by Beckman.

α1 = assay: Radioligand binding, [3H]prazosin, human cerebral cortex (HCC) membranes; conditions: 22° C., 30 minutes
Procedure: as §1
as §2, with “Specific binding defined by 10 μM phentolamine for competition studies were as follows: 0.3 nM [^3H]rauwolscine—CHO—C10 99%; 0.4 nM[^3H]rauwolscine —CHO—RNG 99%; 0.7;nM [^3H]rauwolscine—HT-29 90%; 1 nm [^3]rauwolscine—RKC 92%, and 0.3 nM [^3H]prazosin—HCC 87%.” left out
Frozen membrane pellet was resuspended either 50 mM tris, 2 mM EGTA, 1 mM MgCl2, pH7.5 (RbKC, RbICB-[^3H]brimonidine); 50 mM tris, 0.5 mM EDTA, 5 mM NaCl, pH 7.7 (RbICB-[^3H]rauwolscine); 25 mM glycine/glycine, pH 7.4 (RtKC, CHO—C10, CH—RNG, HT-29, HCC) or 50 mM tris, 0.1 mM MnCl2, pH7.7 (RtCC). Membrane protein homogenate (75-200 μg) was incubated with radioligand under the following conditions: RbKC and RbICB-[^3H]rauwolscine, 22° C., 45 minutes; RtCC and RbICB-[^3H]brimondine, 22° C., 90 minutes; CHO—C10, CHO—RNG and HT-29-[^3H]rauwolscine, 22° C., 30 minutes; HCC—[^3H]prazosin, 22° C., 30 minutes; and, in a final volume of 250 or 500 μl. At the end of the incubation period, the samples were filtered through glass fiber filters (Whatman GF/B) in a 24 or 96 well cell harvester and rapidly washed four times with 4 mls of iced-cold 50 mM Tris-HCl buffer. The filters were then oven dried and transferred to scintillation vials containing 10 mls of, Beckman's Ready Protein® scintillation cocktail for counting. […] Protein concentrations were determined with a protein assay kit from Bio Rad. Binding isotherms, equilibrium dissociation and affinity constants were analyzed and determined by the non-linear least squares curve fitting programs EBDA (BioSoft) or AccuFit Competition/Saturation by Beckman.
The radioligands [^3H]rauwolscine (specific activity 80 Ci/mmol) and [^3H]prazosin (specific activity 76 Ci/mmol) were obtained from New England Nuclear, Boston, Mass. Frozen membrane pellet was resuspended in 25 mM glycine/glycine, pH 7.4 and incubated with radioligand under the following conditions: CHO—C10, CHO—RNG-[^3H]rauwolscine, 22° C., 30 minutes; and, HCC—[^3H]prazosin, 22° C., 30 minutes in a final volume of 500 ul.

SMILES | Ki (Rat Kidney Cortex (α2AB)) | Ki (α1)
CCCCNC1=NCCO1 | 317 nM | > 100000 nM
C1CCC(C2C3CCC(C3)C2NC2=NCCN2)CC1 (stereo not shown) | 5100 nM | 17200 nM
CC(C)C1C2CCC(C2)C1NC1=NCCO1 (stereo not shown) | 58 nM | > 10000 nM

The next lines start with the values.

Ki (Rat Kidney Cortex (α2AB)) | Ki (α1) | SMILES
167 nM | 42000 nM | CCCCC1C2CCC(C2)C1NC1=NCCS1 (stereo not shown)
59 nM | 5820 nM | CCCCC1C2CCC(C2)C1NC1=NCCO1 (stereo not shown)
